# According to patent US20070254907A1, “COMPOSITIONS AND METHODS FOR CONTROLLING INFESTATION” (HATCHTECH PTY LTD, priority 2003, published 2007):
# Assays:
# [1] = test system: Lice (L) and Plutella (P) eggs; test: whole plant or invertebrate; conditions: read-out: Ovicidal activity %
# [2] = test system: proteases in egg shell washings (ESW) of lice eggs; test: Gelatin substrate SDS-PAGE of lice egg shell washings (ESW) incubated with protease inhibitors; assay type: biochemical, Pediculus humanus humanus
# Description: Within 12 hours of hatching 50 body lice eggs (Pediculus humanus humanus) were removed from the hair and placed in a 1 mL eppendorf tube. 20 μL of distilled water was added to the unhatched eggs and the preparation incubated for 30 minutes at 32° C. The 20 μL was recovered, freeze dried and stored at −70° C. This sample was referred to as sample 1. A number of other samples were also collected as described. Sample 2 was collected by removing the unhatched louse eggs from four hairs that were approximately 3 cm long, cutting the hair into 0.5 cm lengths, and placing them into a microfuge tube containing 20 μl of distilled water and incubating at 32° C. for 30 minutes. Sample 3 was collected as for sample 2, but the hair was placed in a tube containing 10 mL of 1% sodium hypochlorite for 1 minute followed by five 1 minute washes in 25 mL of distilled water to remove the sodium hypochlorite before being incubated in a microfuge tube containing 20 μl of distilled water and incubated as for Sample 2. Sample 4 was collected from unhatched eggs which were removed from the hair and washed with 1% sodium hypochlorite and incubated in 20 μl of distilled water in the same manner as the hair in Sample 3. Finally, Sample 5 was collected from eggs that were within 24 hrs of hatching which were washed with 1% sodium hypochlorite, then returned to the incubator at 32° C. until they hatched, the empty egg shells collected 0-2 hrs after egg-hatching, placed in a 1 mL microfuge tube containing 20 μl of distilled water and incubated as for Samples 1-4. For all samples 1-5 the 20 μl of fluid was recovered, freeze-dried and stored at −70° C. The washings recovered from these freshly hatched egg shells are referred to as egg-shell-washings (ESWs). In order to look for the presence of proteases present in these different samples, the freeze-dried samples were resuspended in 15 μL of non-reducing SDS sample buffer, centrifuged at 10,000 g for 2 minutes and the entire 15 μL loaded on to 10% gelatine substrate SDS-PAGE gels. Gels were run at 4° C. for 10 minutes at 10 mA followed by a further 25 minutes at 15 mA per gel. They were then incubated for 2×20 minutes in a 2.5% Triton-X 100 solution followed by a three hour incubation in 0.1M Tris/HCl containing 1 mM CaCl2 pH 8.0. Activity was detected as clear areas on the gel the result of protease activity degrading the gelatine within the gel.
# Protease activity in the ESWs from louse eggs was also examined using two-dimensional gel electrophoresis. It was necessary to collect large numbers of freshly hatched egg shells. Following egglaying onto pieces of cloth, adult female lice were removed and the cloth with the eggs washed with 1% sodium hypochlorite as for collection of ESWs. The eggs were then returned to the incubator and permitted to hatch. Typically 100 to 500 hatched egg shells were collected (0-2 hours post hatching), placed in a microfuge tube containing 200 μl of distilled water, incubated and sample treated as described above. For analysis, ESWs were resuspended in rehydration buffer (8 M Urea, 2% 3-[(3-cholamidopropyl) dimethylammonio]-1-propanesulfonate 2% Immobilised pH gradient buffer 3-10 (Amersham Phamacia Biotech, Uppsala, Sweden)) and used to rehydrate 7 cm Immobiline Dry strips pH 3-10 (Amersham Bioscience) overnight. Strips were transferred to the Multiphor II (Pharmacia, Sweden) apparatus, electrophoresed in the first dimension at 200 V for 1 min, increasing to 3,500 V over the next 90 min followed by 65 min at 3,500 V, equilibrated (6 M urea, 30% glycerol, 50 mM Tris pH 8.8 and 2% SDS) and then run on a 10% SDS-PAGE gel containing 0.1% gelatin for the second dimension. The gel was then run and developed as previously described.
# 10% SDS-PAGE gelatine substrate gels were loaded with freeze dried egg shell washings from 100 lice eggs that had been resuspended in 50 μL of non-reducing sample buffer with samples run at 10 μL per lane. […]
# [3] = test system: third stage H. contortus larvae; test: Survival and L3 to L4 moulting of third stage larvae; assay type: in vivo, Haemonchus contortus
# Description: Third stage H. contortus larvae were exposed to varying concentrations of 5,5′-dimethyl-2,2′-dipyridyl and the effects on moulting from L3 to L4 examined. The larvae were either exsheathed (their L2 sheath was removed chemically) or unexsheathed (their L2 sheaths were intact). The larvae were exposed to varying concentrations of 5,5′-dimethyl-2,2′-dipyridyl added to their culture media of DMEM and the effects on larval survival monitored over time. Following a 30 minute incubation at 37° C., greater than 90% of the exsheathed larvae exposed to 1 and 0.5 mM of the compound appeared dead. […] By day six post exposure greater than 90% of the larvae appeared to have died in the treatment groups while the control larvae appeared healthy.
# [4] = test system: house dust mite Dermatophagoides spp; test: House dust mite counts on treated filter paper; assay type: in vivo; conditions: over the 2 week period, 25° C., 75% RH
# Description: A filter paper (90 mm diameter) was taken and placed in a Petri dish of the same dimensions. The filter paper was then wetted throughout with the test compound, using a small air pump sprayer. The wetted filter paper was then allowed to dry in free flowing air. 200 mg dust mite medium, containing roughly 500 mites/g, was placed on the filter paper and the number of mites counted under a microscope. The arena was then left for 2 weeks on an incubator at 25° C. and 75% RH. After 2 weeks the number of mites in the arena was counted for a second time. This experiment was repeated 3 times with the test compound and a further 3 times using water as a control.
# body louse eggs = test: Standard body louse egg assay with formulated compound; assay type: in vivo, body lice; conditions: 10 minute exposure; for % of eggs that hatched following treatment: formulated
# Description: 5,5′-dimethyl-2,2′-dipyridyl was formulated and evaluated in the standard body louse egg assay. Body louse eggs (15-30 per replicate) of varying ages were exposed for 10 minute to the test solutions or a placebo or left untreated, followed by a 1 minute water wash and blotted dry. The eggs were then incubated at 30° C. over the following 10 days post treatment and the percentage of eggs that successfully hatched was determined (Table 20).
compound,measurement,setting,value
"c1cnc2c(c1)ccc1cccnc12 [1,10-phenanthroline, reference compound]",inhibition at 10000 µM,[1],100%
same,"protease activity of ESW, two dimensional gel electrophoresis",[2]; gel incubated with 10 mM inhibitor,general reduction in protease activity in the 25-30 kDa region and a clear reduction in the proteases present around the 50 kDa region and above 75 kDa
same,protease activity of ESW on gelatin SDS-PAGE compared to untreated controls,"[2]; gel strips incubated with inhibitor: PMSF 5 mM, 1,10-phenanthroline 10 mM, EDTA 10 mM, pepstatin 5 μM, E-64 10 μM",reduction in protease activity
"Cc1ccc(-c2ccc(C)cn2)nc1 [5,5′-dimethyl-2,2′-dipyridyl]",appearance of unexsheathed larvae,"[3]; 10 μM, up to 6 days post exposure",larvae appeared normal
same,exsheathed larvae that appeared dead,"[3]; 1 and 0.5 mM in DMEM, 30 minute incubation at 37° C.",greater than 90%
same,unexsheathed larvae that appeared to have died,"[3]; day six post exposure, treatment groups",greater than 90%
same,effects on unexsheathed larvae compared to control larvae,[3]; up to 3 days post exposure,no adverse effects were observed
same,mite populations on the treated filter papers,[4],small decline
same,ovicidal activity of formulated compound on body louse eggs,body louse eggs; 1 minute water wash,strong dose dependency of ovicidal activity
same,% of eggs that hatched following treatment,"body louse eggs; 1 mM, age of eggs 24 hr",91%
same,% of eggs that hatched following treatment,"body louse eggs; 1 mM, age of eggs 48 hr",80%
same,% of eggs that hatched following treatment,"body louse eggs; 1 mM, age of eggs 96 hr",82%
same,% of eggs that hatched following treatment,"body louse eggs; 1 mM, age of eggs 120 hr",86%
same,% of eggs that hatched following treatment,"body louse eggs; 5 mM, age of eggs 24 hr",21%
same,% of eggs that hatched following treatment,"body louse eggs; 5 mM, age of eggs 48 hr",58%
same,% of eggs that hatched following treatment,"body louse eggs; 5 mM, age of eggs 96 hr",64%
same,% of eggs that hatched following treatment,"body louse eggs; 5 mM, age of eggs 120 hr",65%
same,% of eggs that hatched following treatment,"body louse eggs; 10 mM, age of eggs 24 hr",4%
same,% of eggs that hatched following treatment,"body louse eggs; 10 mM, age of eggs 48 hr",7%
same,% of eggs that hatched following treatment,"body louse eggs; 10 mM, age of eggs 96 hr",10%
same,% of eggs that hatched following treatment,"body louse eggs; 10 mM, age of eggs 120 hr",12%
same,% of eggs that hatched following treatment,"body louse eggs; 30 mM, age of eggs 24 hr",0%
same,% of eggs that hatched following treatment,"body louse eggs; 30 mM, age of eggs 48 hr",0%
same,% of eggs that hatched following treatment,"body louse eggs; 30 mM, age of eggs 96 hr",0%
same,% of eggs that hatched following treatment,"body louse eggs; 30 mM, age of eggs 120 hr",0%
